Source: publication PMC6405930, “Conservation of the Amyloid Interactome Across Diverse Fibrillar Structures” (Scientific Reports, 2019)

Assays:
Ab1 fibrils (Aβ(1–40)) = Ab1 fibrils (Aβ(1–40)) (Homo sapiens, UniProt P05067); assay: Fibril titration with ThT (fluorescence); format: binding
Protocol: (§1) Fibril material (7.5 μg) was set up in 100 μL phosphate buffer in a 96 well half-area NBS plate (NUNC/Terma).

Ab2 fibrils (Aβ(1–40)) = Ab2 fibrils (Aβ(1–40)) (Homo sapiens, UniProt P05067); assay: Fibril titration with ThT (fluorescence); format: binding
Protocol: as §1

C-36 fibrils [1] = molecular target: T1, C-36 fibrils (Homo sapiens, UniProt P01009); assay: Fibril titration with ThT (fluorescence); format: binding
T1 construct: the 36 residue C-terminal fragment of α1-antitrypsin (C-36)
Protocol: as §1

[2] = tested on: chymotrypsinogen amorphous aggregates; assay: Fibril titration with ThT (fluorescence); format: binding; conditions: TCA-induced amorphous aggregates
Protocol: as §1

αSN fibrils [3] = molecular target: T2, αSN fibrils (Homo sapiens, UniProt P37840); assay: Fibril titration with ThT (fluorescence); format: binding; conditions: titration experiment
Protocol: as §1

glucagon fibrils [4] = molecular target: T3, glucagon fibrils (Homo sapiens, UniProt P01275); assay: Fibril titration with ThT (fluorescence); conditions: 7.5 μg fibril material, single-site binding model
T3 construct: fibrils of the peptide hormone glucagon
Protocol: as §1

FAS4 AD aggregates = tested on: T4, FAS4 AD aggregates; assay: Fibril titration with ThT (fluorescence); format: binding, human; conditions: ThT mixed with FAS4 AD aggregates
T4 construct: a mutated version of the FAS1-4 domain of TGFBIp
Protocol: as §1

Ab1 fibrils [5] = tested on: T5, Ab1 fibrils; assay: Determination of the binding capacity (dye depletion from supernatant); parameters: species or system human; conditions: 2 nmol dye (20 µM) with 10 μg fibril material, one hour
T5 construct: Synthetic amyloid β peptide 1–40 was purchased from Caslo Aps (Lyngby, Denmark); purchased Caslo Aps (Lyngby, Denmark); host or cells: synthetic peptide
Protocol: (§2) Control samples (without fibril material) were prepared similarly. Fibrils and fibril-bound ligand were pelleted by centrifugation (17,000 g, 30 min) and the supernatant (90 μL) was transferred to a 96 well half-area plate (Corning 3881).

Ab2 fibrils [6] = tested on: T6, Ab2 fibrils; assay: as above; parameters: species or system human; conditions: 2 nmol dye (20 µM) with 10 μg fibril material, one hour
T6 construct: Two structurally distinct fibrils of the Aβ(1–40) peptide associated with AD
Protocol: as §2

C-36 fibrils [7] = molecular target: T1, C-36 fibrils; assay: as above; conditions: 2 nmol dye (20 µM) with 10 μg fibril material, one hour
Protocol: as §2

glucagon fibrils [8] = molecular target: T3, glucagon fibrils; assay: as above; conditions: 2 nmol dye (20 µM) with 10 μg fibril material, one hour
Protocol: as §2

αSN fibrils [9] = molecular target: T2, αSN fibrils; assay: as above; conditions: 2 nmol dye (20 µM) with 10 μg fibril material, one hour
Protocol: as §2

Ab1 fibrils [10] = tested on: T5, Ab1 fibrils; assay: Fibril incubation with plasma, quantitative MS/MS of bound proteins; format: binding, human; conditions: 50:1 w/w plasma protein:fibril
Method in brief: (§3)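 Fibrils (20 μg) incubated 1 h at room temperature with plasma (500 μg) or CSF (40 μg) protein in PBS/5 mM EDTA; pellets washed, guanidinium-dissolved, trypsin-digested. Label-free LC-MS/MS XIC of top three peptides, normalized to total ion intensity, averaged over nine runs; fibril-free controls.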

Ab2 fibrils [11] = tested on: T6, Ab2 fibrils; assay: as above; format: binding, human; conditions: 50:1 w/w plasma protein:fibril
glucagon fibrils [12] = molecular target: T3, glucagon fibrils; assay: as above; format: binding; conditions: 50:1 w/w plasma protein:fibril
C-36 fibrils [13] = molecular target: T1, C-36 fibrils; assay: as above; format: binding; conditions: 50:1 w/w plasma protein:fibril
αSN fibrils [14] = molecular target: T2, αSN fibrils; assay: as above; format: binding; conditions: 50:1 w/w plasma protein:fibril
Method in brief: as §3

FAS4-AD aggregates [15] = tested on: T7, FAS4-AD aggregates; assay: as above; format: binding, human; conditions: 50:1 w/w plasma protein:fibril
T7 construct: aggregates of a mutated version of the FAS1-4 domain of TGFBIp
Method in brief: as §3

[16] = tested on: fibril systems (Ab1, Ab2, glucagon, αSN and C-36); assay: Fibril incubation with plasma, quantitative MS/MS, span over the fibril systems; format: binding, human
Protocol: (§4) Plasma and CSF solutions were centrifuged (40,000 g, 20 min) to remove any aggregates. The protein concentration was determined using 280 nm absorbance assuming 1 Abs = 1 mg/mL. […] Control samples (without fibril material) were prepared similarly. All samples were incubated at room temperature for one hour under gentle agitation. Fibrils and fibril-bound proteins were pelleted by centrifugation at 17,000 g for 30 minutes. The supernatant (175 μL) was removed and the aggregate was re-suspended in 175 μL PBS and pelleted again before further preparation for gel analysis and spin-filter assisted digest for quantitative MS/MS.
The fibril-protein pellets were transferred to spin-filters (0.22 μm), washed twice in PBS (100 μL) and once in 1 M NaCl (100 μL). The fibrils and fibril-bound proteins were dissolved by one-hour incubation in 100 μL 6 M guanidinium chloride followed by elution from the spin-filter. […]
(§5) The micro-purified tryptic peptides were dissolved in 0.1% formic acid, injected and trapped on an in-house packed trap column (2 cm × 100 μm I.D) with RP ReproSil-Pur C18-AQ 3 μm resin (Dr. Maisch GmbH). […] Elution from the analytical column was performed with a linear gradient from 5% to 35% phase B (90% acetonitrile with 0.1% formic acid) over 20 min for protein identification and 50 min for quantitative analysis, respectively.
All samples were analysed three times, yielding nine MS/MS experiments for each fibril for both plasma and CSF. For the area-based extracted ion chromatogram (XIC) quantification, the acquisition method was set up as an information-dependent acquisition (IDA) experiment collecting up to 25 MS/MS spectra in each 1.6 sec cycle using an exclusion window of 6 sec. […]
XIC quantification was based on the average ion intensity of the three most abundant peptides for each protein. Only proteins quantified in at least four out of nine MS/MS experiments per fibril were included in the quantification. […]

Ab1 fibrils [17] = tested on: T5, Ab1 fibrils; assay: Fibril incubation with CSF, quantitative MS/MS of bound proteins; format: binding, human; conditions: 4:1 w/w CSF protein:fibril
Ab2 fibrils [18] = tested on: T6, Ab2 fibrils; assay: as above; format: binding, human; conditions: 4:1 w/w CSF protein:fibril
glucagon fibrils [19] = molecular target: T3, glucagon fibrils; assay: as above; format: binding; conditions: 4:1 w/w CSF protein:fibril
C-36 fibrils [20] = molecular target: T1, C-36 fibrils; assay: as above; format: binding; conditions: 4:1 w/w CSF protein:fibril
αSN fibrils [21] = molecular target: T2, αSN fibrils; assay: as above; format: binding; conditions: 4:1 w/w CSF protein:fibril
FAS4-AD aggregates [22] = tested on: T7, FAS4-AD aggregates; assay: as above; format: binding, human; parameters: key to Identification status of CSF protein bound: FAS4-AD: *: Identified, but not quantified; —: Not identified in any of the samples; conditions: symbol cells
[23] = tested on: fibril systems (Ab1, Ab2, glucagon, αSN and C-36); assay: Fibril incubation with CSF, quantitative MS/MS, span over the fibril systems; format: binding, human
Protocol: as §4, with “MS/MS. […]” for “MS/MS.”
as §5
All samples were analysed three times, yielding nine MS/MS experiments for each fibril for both plasma and CSF. […]

[24] = 7.5 μg fibril material, two-site binding model

Chain of Ab1 fibrils (Aβ(1–40)) (P05067 672-711): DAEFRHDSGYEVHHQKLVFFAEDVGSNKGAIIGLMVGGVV
Chain of Ab2 fibrils (Aβ(1–40)) (P05067 672-711): as above
T3 sequence (P01275 53-81 limits assumed): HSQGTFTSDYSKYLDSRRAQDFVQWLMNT
T1 sequence (P01009 383-418 limits assumed): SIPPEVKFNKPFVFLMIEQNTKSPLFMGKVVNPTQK

With `Cc1ccc2c(c1)sc(-c1ccc(N(C)C)cc1)[n+]2C` [ThT, Thioflavin T] the Imax1 (Ab1 fibrils (Aβ(1–40)); [24]) was 23,000 rfu, the Imax2 (Ab1 fibrils (Aβ(1–40)); [24]) was −22,000 rfu and the ThT fluorescence level (Ab1 fibrils (Aβ(1–40)); titration experiment) was 2–5,000 RFU. For the same compound, the Imax1 (Ab2 fibrils (Aβ(1–40)); [24]) was 23,000 rfu, the Imax2 (Ab2 fibrils (Aβ(1–40)); [24]) was −21,250 rfu and the ThT fluorescence level (Ab2 fibrils (Aβ(1–40)); titration experiment) was 2–5,000 RFU. The “maximum ThT fluorescence intensity (Imax)” value (C-36 fibrils [1]; 7.5 μg fibril material, single-site binding model) was 12,500 rfu, the Kd (C-36 fibrils [1]; 7.5 μg fibril material, single-site binding model, read-out: dissociation constant (kd)) was 630 nM and the ThT fluorescence level (C-36 fibrils [1]; titration experiment) was 12,500 RFU. For the same compound, the ThT signal [2] was “did not result in any ThT signal”, the ThT fluorescence level (αSN fibrils [3]) was 2–5,000 RFU and the “maximum ThT fluorescence intensity (Imax)” value (glucagon fibrils [4]) was 1,000 rfu. The Kd (glucagon fibrils [4]; read-out: dissociation constant (kd)) was 1450 nM, the ThT fluorescence (FAS4 AD aggregates) was “did not detect any fluorescence” and the “Ligand bound (binding capacity)” value (Ab1 fibrils [5]) was 42 nmol/mg fibril. The “Ligand bound (binding capacity)” value (Ab2 fibrils [6]) was 35 nmol/mg fibril, the “Ligand bound (binding capacity)” value (C-36 fibrils [7]) was 10 nmol/mg fibril and the “Ligand bound (binding capacity)” value (glucagon fibrils [8]) was 18 nmol/mg fibril. The “Ligand bound (binding capacity)” value (αSN fibrils [9]) was 42 nmol/mg fibril.

For “Vitronectin: plasma/CSF protein bound to fibrils”, the “Relative composition of plasma proteins bound: Ab1” value (Ab1 fibrils [10]) was 17.1 ± 1.9 % of total protein, the “Relative composition of plasma proteins bound: Ab2” value (Ab2 fibrils [11]) was 12.1 ± 2.1 % of total protein and the “Relative composition of plasma proteins bound: Glucagon” value (glucagon fibrils [12]) was 3.7 ± 0.1 % of total protein. The “Relative composition of plasma proteins bound: C-36” value (C-36 fibrils [13]) was 4.9 ± 0.5 % of total protein, the “Relative composition of plasma proteins bound: αSN” value (αSN fibrils [14]) was 9.3 ± 2.2 % of total protein and the “Relative composition of plasma proteins bound: FAS4-AD” value (FAS4-AD aggregates [15]) was 1.6 ± 0.4 % of total protein. For the same compound, the “contribution to the fibril interactomes” value [16] was 3.7–17.1%, the “Relative composition of CSF proteins bound: Ab1” value (Ab1 fibrils [17]) was 1.1 ± 0.0 % of total protein and the “Relative composition of CSF proteins bound: Ab2” value (Ab2 fibrils [18]) was 1.3 ± 0.3 % of total protein. For the same compound, the “Relative composition of CSF proteins bound: Glucagon” value (glucagon fibrils [19]) was 0.2 ± 0.1 % of total protein, the “Relative composition of CSF proteins bound: C-36” value (C-36 fibrils [20]) was 0.8 ± 0.1 % of total protein and the “Relative composition of CSF proteins bound: αSN” value (αSN fibrils [21]) was 3.6 ± 0.2 % of total protein. For the same compound, the “Identification status of CSF protein bound: FAS4-AD” value (FAS4-AD aggregates [22]) was “—” and the “contribution to the fibril interactomes” value [23] was 0.2–3.6%.
